Assays:
[1] = molecular target: MAP kinase-interacting serine/threonine-protein kinase 2 (Homo sapiens, UniProt Q9HBH9); experiment: Selectivity interaction (KinomeScan (DiscoverX)) EUB0000695a MKNK2; details: at 100 nM
[2] = molecular target: T1, Receptor-interacting serine/threonine-protein kinase 4 (Homo sapiens) (UniProt P57078); details: at 10 µM
T1 sequence (whole entry): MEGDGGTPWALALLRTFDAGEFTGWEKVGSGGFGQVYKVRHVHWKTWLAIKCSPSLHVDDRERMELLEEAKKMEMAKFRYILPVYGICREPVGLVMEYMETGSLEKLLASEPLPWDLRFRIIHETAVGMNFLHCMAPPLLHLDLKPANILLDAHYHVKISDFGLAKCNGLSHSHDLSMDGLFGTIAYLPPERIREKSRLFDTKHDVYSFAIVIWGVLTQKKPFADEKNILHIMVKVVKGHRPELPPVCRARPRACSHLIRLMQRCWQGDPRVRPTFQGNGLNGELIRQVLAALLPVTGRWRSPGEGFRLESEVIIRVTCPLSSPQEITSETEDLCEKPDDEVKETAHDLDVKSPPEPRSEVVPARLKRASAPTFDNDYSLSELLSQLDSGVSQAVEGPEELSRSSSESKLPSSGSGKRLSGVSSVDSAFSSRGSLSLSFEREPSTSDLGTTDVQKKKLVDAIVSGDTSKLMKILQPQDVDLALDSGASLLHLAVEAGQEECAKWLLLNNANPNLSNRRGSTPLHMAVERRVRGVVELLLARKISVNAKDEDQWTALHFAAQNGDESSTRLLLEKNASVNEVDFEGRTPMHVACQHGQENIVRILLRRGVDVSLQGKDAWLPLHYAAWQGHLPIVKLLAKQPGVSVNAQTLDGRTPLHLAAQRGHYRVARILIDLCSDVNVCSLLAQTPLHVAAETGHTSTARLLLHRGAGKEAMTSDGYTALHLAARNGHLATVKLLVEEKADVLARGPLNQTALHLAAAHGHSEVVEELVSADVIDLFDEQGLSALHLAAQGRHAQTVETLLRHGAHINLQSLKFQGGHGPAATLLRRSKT

[3] = molecular target: Dual specificity protein kinase CLK3 (Homo sapiens, UniProt P49761); experiment: Selectivity interaction (KinomeScan (DiscoverX)) EUB0000607a CLK3; details: at 10 µM
[4] = molecular target: T2, cAMP-dependent protein kinase catalytic subunit PRKX (Homo sapiens) (UniProt P51817); experiment: Selectivity interaction (KinomeScan (DiscoverX)) EUB0000618a PRKX; details: at 10 µM
T2 sequence (whole entry): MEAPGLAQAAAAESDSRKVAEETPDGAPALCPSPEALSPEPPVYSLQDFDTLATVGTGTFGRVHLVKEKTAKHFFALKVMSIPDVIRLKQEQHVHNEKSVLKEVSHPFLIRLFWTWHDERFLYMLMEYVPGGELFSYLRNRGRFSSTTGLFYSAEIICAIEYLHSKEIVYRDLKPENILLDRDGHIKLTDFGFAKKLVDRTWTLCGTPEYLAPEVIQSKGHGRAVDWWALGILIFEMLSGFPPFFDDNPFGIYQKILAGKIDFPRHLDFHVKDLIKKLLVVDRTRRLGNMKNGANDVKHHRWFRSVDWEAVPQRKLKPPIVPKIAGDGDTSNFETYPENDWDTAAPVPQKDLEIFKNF

[5] = molecular target: T3, Protein kinase C zeta type (Homo sapiens) (UniProt Q05513); experiment: Selectivity interaction (Kinase panel (Invitrogen)) EUB0000639a PRKCZ; details: at 200 nM
T3 sequence (whole entry): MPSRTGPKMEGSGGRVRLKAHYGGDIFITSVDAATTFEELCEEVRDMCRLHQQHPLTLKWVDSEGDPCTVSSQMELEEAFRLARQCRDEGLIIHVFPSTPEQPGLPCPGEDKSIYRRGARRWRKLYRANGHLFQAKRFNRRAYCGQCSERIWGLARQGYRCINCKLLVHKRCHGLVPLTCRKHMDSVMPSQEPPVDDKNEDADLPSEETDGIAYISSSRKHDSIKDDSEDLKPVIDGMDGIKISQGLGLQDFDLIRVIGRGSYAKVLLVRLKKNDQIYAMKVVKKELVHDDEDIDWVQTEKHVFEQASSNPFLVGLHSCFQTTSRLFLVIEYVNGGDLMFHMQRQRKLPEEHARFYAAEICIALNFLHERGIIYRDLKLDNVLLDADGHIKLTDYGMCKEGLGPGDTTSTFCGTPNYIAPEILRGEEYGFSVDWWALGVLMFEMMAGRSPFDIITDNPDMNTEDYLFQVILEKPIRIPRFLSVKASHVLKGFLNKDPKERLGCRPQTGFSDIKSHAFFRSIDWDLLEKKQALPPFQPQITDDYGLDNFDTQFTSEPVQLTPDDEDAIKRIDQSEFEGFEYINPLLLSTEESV

[6] = molecular target: Cell division control protein 42 homolog (Homo sapiens) (UniProt P60953); experiment: Selectivity interaction (Kinase panel (Invitrogen)) EUB0000639a CDC42; details: at 200 nM
[7] = molecular target: G protein-coupled receptor kinase 4 (Homo sapiens) (UniProt P32298); experiment: Selectivity interaction (KinomeScan (DiscoverX)) EUB0000092b GRK4; details: at 10 µM
[8] = molecular target: Maternal embryonic leucine zipper kinase (Homo sapiens) (UniProt Q14680); experiment: Selectivity interaction (Ambit KINOMEscan and KiNATiv profiling in Jurkat cells) EUB0000090b MELK; type: cell-based; details: at 1 µM
[9] = molecular target: Vascular endothelial growth factor receptor 3 (Homo sapiens, UniProt P35916); experiment: Selectivity interaction (Ambit KINOMEscan and KiNATiv profiling in Jurkat cells) EUB0000090b FLT4; type: cell-based; details: at 1 µM
Vascular endothelial growth factor receptor 3, sequence (P35916 whole entry): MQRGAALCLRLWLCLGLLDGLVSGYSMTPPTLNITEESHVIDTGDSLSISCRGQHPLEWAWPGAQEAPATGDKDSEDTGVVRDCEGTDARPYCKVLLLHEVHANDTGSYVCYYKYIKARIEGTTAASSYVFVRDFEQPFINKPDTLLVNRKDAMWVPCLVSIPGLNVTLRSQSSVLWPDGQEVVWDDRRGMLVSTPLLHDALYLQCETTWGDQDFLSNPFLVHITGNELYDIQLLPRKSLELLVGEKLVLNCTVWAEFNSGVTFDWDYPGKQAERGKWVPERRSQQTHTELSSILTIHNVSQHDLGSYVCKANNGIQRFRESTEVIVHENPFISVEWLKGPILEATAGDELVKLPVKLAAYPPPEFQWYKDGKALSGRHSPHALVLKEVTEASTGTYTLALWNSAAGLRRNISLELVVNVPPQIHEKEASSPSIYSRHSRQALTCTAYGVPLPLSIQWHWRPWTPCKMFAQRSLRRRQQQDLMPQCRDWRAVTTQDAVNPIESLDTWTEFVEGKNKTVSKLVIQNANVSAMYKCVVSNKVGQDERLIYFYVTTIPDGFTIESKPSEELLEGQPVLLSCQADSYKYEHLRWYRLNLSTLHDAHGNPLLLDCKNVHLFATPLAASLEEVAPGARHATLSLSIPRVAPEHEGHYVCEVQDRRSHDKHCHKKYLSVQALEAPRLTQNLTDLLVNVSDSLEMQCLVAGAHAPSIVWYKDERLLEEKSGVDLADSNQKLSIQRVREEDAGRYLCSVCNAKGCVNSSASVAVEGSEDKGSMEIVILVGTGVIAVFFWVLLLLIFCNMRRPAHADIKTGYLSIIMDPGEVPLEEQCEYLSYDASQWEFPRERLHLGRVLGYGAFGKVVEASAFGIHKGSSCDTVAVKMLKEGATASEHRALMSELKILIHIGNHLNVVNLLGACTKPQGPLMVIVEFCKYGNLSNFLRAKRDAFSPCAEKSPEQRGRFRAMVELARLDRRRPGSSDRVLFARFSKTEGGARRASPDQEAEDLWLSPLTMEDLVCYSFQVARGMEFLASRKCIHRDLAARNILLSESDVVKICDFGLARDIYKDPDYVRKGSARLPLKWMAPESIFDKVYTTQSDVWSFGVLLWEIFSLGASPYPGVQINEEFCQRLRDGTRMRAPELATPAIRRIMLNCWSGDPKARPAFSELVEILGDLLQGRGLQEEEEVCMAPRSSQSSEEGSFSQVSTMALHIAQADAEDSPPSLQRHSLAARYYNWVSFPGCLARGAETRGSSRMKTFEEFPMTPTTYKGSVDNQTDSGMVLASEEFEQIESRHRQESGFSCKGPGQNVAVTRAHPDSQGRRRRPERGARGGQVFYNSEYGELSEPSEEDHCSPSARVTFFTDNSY

MAP kinase-interacting serine/threonine-protein kinase 2, sequence (Q9HBH9 whole entry, looked up): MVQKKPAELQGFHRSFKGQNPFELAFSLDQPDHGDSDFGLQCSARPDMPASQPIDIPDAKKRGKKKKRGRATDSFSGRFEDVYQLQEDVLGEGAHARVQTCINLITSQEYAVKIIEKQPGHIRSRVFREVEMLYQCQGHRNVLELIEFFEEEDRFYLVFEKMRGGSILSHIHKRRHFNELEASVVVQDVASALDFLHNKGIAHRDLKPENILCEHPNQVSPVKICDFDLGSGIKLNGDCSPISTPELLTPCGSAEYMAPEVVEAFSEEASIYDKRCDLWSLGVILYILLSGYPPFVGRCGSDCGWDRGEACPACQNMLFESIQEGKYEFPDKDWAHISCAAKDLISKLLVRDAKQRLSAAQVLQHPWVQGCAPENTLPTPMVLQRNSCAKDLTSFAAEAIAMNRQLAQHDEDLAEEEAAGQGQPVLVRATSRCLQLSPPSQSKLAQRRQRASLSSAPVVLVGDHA
G protein-coupled receptor kinase 4 (Homo sapiens), sequence (P32298 whole entry, looked up): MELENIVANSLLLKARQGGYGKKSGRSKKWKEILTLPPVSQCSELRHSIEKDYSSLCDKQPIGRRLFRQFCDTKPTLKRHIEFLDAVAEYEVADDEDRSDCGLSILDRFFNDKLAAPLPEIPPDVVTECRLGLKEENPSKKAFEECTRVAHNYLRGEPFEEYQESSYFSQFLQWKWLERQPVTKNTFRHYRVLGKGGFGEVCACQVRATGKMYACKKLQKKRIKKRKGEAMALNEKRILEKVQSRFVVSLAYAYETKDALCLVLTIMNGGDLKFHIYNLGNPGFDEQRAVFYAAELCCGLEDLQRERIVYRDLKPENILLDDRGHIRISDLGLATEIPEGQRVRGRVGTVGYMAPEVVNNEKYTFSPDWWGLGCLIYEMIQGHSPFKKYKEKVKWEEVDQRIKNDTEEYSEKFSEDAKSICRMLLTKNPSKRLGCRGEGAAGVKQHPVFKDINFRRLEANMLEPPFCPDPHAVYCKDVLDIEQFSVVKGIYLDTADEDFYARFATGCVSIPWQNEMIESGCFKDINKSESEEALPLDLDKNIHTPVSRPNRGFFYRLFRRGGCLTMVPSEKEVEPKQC
Dual specificity protein kinase CLK3, sequence (P49761 whole entry, looked up): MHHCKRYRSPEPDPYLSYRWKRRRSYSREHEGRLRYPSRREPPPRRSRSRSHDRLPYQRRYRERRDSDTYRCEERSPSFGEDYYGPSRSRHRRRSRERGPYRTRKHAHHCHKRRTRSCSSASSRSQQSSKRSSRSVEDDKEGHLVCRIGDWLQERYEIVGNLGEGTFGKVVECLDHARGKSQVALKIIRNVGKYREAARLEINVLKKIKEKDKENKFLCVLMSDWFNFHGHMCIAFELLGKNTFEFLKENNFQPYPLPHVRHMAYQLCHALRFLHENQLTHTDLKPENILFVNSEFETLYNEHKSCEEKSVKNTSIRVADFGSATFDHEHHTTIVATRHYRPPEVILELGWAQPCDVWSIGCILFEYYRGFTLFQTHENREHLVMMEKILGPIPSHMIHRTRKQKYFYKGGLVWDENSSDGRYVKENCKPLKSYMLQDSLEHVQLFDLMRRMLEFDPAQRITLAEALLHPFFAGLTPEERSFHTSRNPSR
Cell division control protein 42 homolog (Homo sapiens), sequence (P60953 whole entry, looked up): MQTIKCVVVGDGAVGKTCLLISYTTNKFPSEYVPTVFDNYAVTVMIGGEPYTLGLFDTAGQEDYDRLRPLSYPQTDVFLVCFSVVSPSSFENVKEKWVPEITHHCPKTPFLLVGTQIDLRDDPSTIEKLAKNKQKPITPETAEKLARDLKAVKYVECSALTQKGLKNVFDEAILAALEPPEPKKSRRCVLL
Maternal embryonic leucine zipper kinase (Homo sapiens), sequence (Q14680 whole entry, looked up): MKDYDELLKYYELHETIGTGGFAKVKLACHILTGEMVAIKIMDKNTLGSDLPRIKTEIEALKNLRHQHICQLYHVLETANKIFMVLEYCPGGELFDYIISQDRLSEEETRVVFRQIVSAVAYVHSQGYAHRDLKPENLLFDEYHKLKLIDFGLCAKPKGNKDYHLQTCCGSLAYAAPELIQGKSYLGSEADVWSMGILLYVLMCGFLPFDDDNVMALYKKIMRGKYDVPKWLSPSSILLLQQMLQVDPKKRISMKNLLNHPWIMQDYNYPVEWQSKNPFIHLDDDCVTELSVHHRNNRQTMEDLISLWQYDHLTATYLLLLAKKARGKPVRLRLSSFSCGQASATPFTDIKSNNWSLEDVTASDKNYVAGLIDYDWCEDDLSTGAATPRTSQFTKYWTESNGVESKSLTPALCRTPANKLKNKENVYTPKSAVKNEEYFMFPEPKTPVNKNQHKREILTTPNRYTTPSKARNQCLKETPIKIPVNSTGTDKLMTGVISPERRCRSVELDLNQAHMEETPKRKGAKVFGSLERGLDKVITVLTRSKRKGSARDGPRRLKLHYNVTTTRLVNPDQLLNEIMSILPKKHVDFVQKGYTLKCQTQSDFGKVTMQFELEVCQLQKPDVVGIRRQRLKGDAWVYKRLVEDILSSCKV

Cc1cc(F)c(C(=O)Nc2cccc(-c3nncn3C(C)C)n2)cc1-n1cnc(C2CC2)c1
% of control [1]: 75%

Cc1cc([C@@H](C)Nc2ccccc2C(=O)O)c2nc(N3CCOCC3)cc(=O)n2c1 [AZD-6482]
% of control [2]: 99%

CNC(=O)Nc1ccc(-c2nc(N3CC4CCC(C3)O4)c3cnn(C4CCC5(CC4)OCCO5)c3n2)cc1
% of control [3]: 31%

O[C@H]1CC[C@H](Nc2ncc3nc(Nc4c(F)cc(F)cc4F)n([C@H]4CCOC4)c3n2)CC1
% of control [4]: 100%

CC[C@@H]1[C@H](F)C(=O)N[C@@H]1COc1nccc2cc(C(N)=O)c(OC)cc12 [ZIMLOVISERTIB]
% of inhibition [5]: 6.26% | % of inhibition [6]: 13.7%

CCC(=O)N1CCN(c2ccc(-n3c(=O)ccc4cnc5ccc(-c6cnc7ccccc7c6)cc5c43)cc2C(F)(F)F)CC1
% of control [7]: 90%

CN(C)C/C=C/C(=O)Nc1ccc(C(=O)N2CCCC(Nc3ncc(Cl)c(-c4c[nH]c5ccccc45)n3)C2)cc1 (centres undefined)
% of control [8]: 75% | % of control [9]: 70%
